From patent publication US20170135322A1, “A BIOCONTROL COMBINATION AND METHOD FOR IMPROVING QUALITY OF SHELLED EGGS” (NOBACTRA ISRAEL Ltd., priority 2014, published 2017)
Values joined by “and” are separate entries in the source; they are usually repeats but may differ in a detail not shown here. Equal entries are not always repeated.

Tests used:
Experiment in all cases: Effect on fungi growth (Example III)
Assay type in all cases: cell-based
[1] = test system: Fusarium Spp. (isolate #1); conditions: additive 10%, without biocontrol formulation, initial diameter 0.5 cm
Description: (§1) The effect of various additives on fungi growth was examined. The fungi examined included two isolates of Fusarium Spp. (isolate #1 and isolate #2), sclerotium, and trychoderma.
(§2) The larger the colony's dimension (diameter) in the petri dish, the lower is the inhibitory effect of the additive. The initial diameter of the colony before treatment was 0.5 cm.

[2] = test system: Fusarium Spp. (isolate #2); conditions: additive 10%, without biocontrol formulation, initial diameter 0.5 cm
Description: as §1, §2

sclerotium = conditions: additive 10%, without biocontrol formulation, initial diameter 0.5 cm
Description: as §1, §2

trychoderma = conditions: additive 10%, without biocontrol formulation; initial diameter 0.5 cm
Description: as §1, §2

Compound	colony size (diameter) [1]	colony size (diameter) [2]	colony size (diameter) (sclerotium)	colony size (diameter) (trychoderma)	colony size (diameter) ([1]; hydrate)	colony size (diameter) ([2]; hydrate)	colony size (diameter) (sclerotium; hydrate)
O=C([O-])O.[K+] [Potassium bicarbonate, potassium becarbonate]	1.6 cm and 1.5 cm and 2.0 cm and 1.8 cm	1.3 cm and 1.2 cm	0.5 cm	0.5 cm			
O.O.O.O.O.O.O.O=S(=O)([O-])[O-].[Mg+2] [Magnesium sulphate hepta hydrate, magnesiumsulphate hepta hydrate]				0.5 cm	3.2 cm and 3.1 cm	3.0 cm and 3.1 cm	3.0 cm and 2.7 cm and 2.5 cm and 2.2 cm
O=C([O-])O.[Na+] [Sodium bicarbonate, sodium bicarbonate]	1.0 cm and 1.1 cm	0.5 cm	0.5 cm	0.5 cm			
